Results taken from ChEMBL document CHEMBL2331163, “Enhancement of the water solubility of flavone glycosides by disruption of molecular planarity of the aglycone moiety” (J Nat Prod, 2013).
Converted amounts (≈) assume the structure as drawn.

Key:
[1] = Lipophilicity, log P of the compound; type: physicochemical; details: octanol/water
[2] = Aqueous solubility of the compound in water after 2 days by HPLC analysis; type: physicochemical

Compound | logP [1] | solubility at 48 h [2] [mg/mL]
C[C@@H]1O[C@@H](O[C@H]2[C@H](Oc3cc(O)c4c(=O)c(Br)c(-c5ccc(O)cc5)oc4c3)O[C@H](CO)[C@@H](O)[C@@H]2O)[C@H](O)[C@H](O)[C@H]1O | 0.93 | > 100
COc1ccc(-c2oc3cc(O[C@@H]4O[C@H](CO[C@@H]5O[C@@H](C)[C@H](O)[C@@H](O)[C@H]5O)[C@@H](O)[C@H](O)[C@H]4O)cc(O)c3c(=O)c2Br)cc1 | 1.17 | 13.8 (≈ 20.6 mM)
COc1ccc(-c2oc3cc(O[C@@H]4O[C@H](CO[C@@H]5O[C@@H](C)[C@H](O)[C@@H](O)[C@H]5O)[C@@H](O)[C@H](O)[C@H]4O)cc(O)c3c(=O)c2O)cc1O | 0.06 | 0.0056 (≈ 0.00897 mM)
COc1ccc(-c2oc3cc(O[C@@H]4O[C@H](CO[C@@H]5O[C@@H](C)[C@H](O)[C@@H](O)[C@H]5O)[C@@H](O)[C@H](O)[C@H]4O)cc(O)c3c(=O)c2Cl)cc1O | 0.44 | 231 (≈ 359 mM)
COc1ccc(-c2oc3cc(O[C@@H]4O[C@H](CO[C@@H]5O[C@@H](C)[C@H](O)[C@@H](O)[C@H]5O)[C@@H](O)[C@H](O)[C@H]4O)cc(O)c3c(=O)c2Br)cc1O | 0.61 | 214 (≈ 311 mM)
COc1ccc(-c2cc(=O)c3c(O)cc(O[C@@H]4O[C@H](CO[C@@H]5O[C@@H](C)[C@H](O)[C@@H](O)[C@H]5O)[C@@H](O)[C@H](O)[C@H]4O)cc3o2)cc1 [ACACIIN] | 0.84 | 0.0046 (≈ 0.00776 mM)
C[C@@H]1O[C@@H](O[C@H]2[C@H](Oc3cc(O)c4c(=O)cc(-c5ccc(O)cc5)oc4c3)O[C@H](CO)[C@@H](O)[C@@H]2O)[C@H](O)[C@H](O)[C@H]1O [RHOIFOLIN] | 0.71 | 0.114 (≈ 0.197 mM)
